# Results taken from PMC8428568, “Discovery of re-purposed drugs that slow SARS-CoV-2 replication in human cells” (PLoS Pathogens, 2021).
# Counter-ions that a name gives are not always drawn. Like-named read-outs stand apart in the source and are kept apart here.
# Columns and labels:
# recombinant NLuc = format: biochemical; conditions: for Relative Recombinant NLUC: recombinant NLuc activity relative to DMSO; for Reads Counts per second (read 1) / Reads Counts per second (read 4) / Reads Counts per second (read 2) / Reads Counts per second (read 3): recombinant NLuc; for Reads Counts per second (read 1): first read column; for Reads Counts per second (read 4): fourth read column; for Reads Counts per second (read 3): third read column
# [1] = test system: SARS-CoV-2-ΔOrf7a-NLuc virus; assay: microbe, parasite or virus in culture; format: cell-based; conditions: for activity at 10 µM: Severe acute respiratory syndrome coronavirus 2, Vero, 72 h, read-out: Mean relative luminescence (n=4)
# [2] = test system: SARS-CoV-2-ΔOrf7a-NLuc virus; assay: microbe, parasite or virus in culture; format: cell-based; conditions: for Mean relative luminescence (n=4): HUH7 screen
# HUH7 cells = conditions: for PrestoBlue relative viability: HUH7 screen; for toxic effects on cells: HUH7 cells screen
# [3] = Vero screen, relative luminescence
# [4] = 1 = untreated, 0 = total inhibition
# [5] = Vero cells, 10 μM, 1 = DMSO-treated infected cells
Compound,Relative Recombinant NLUC (recombinant NLuc),Reads Counts per second (read 1) (recombinant NLuc) [Counts per second],Reads Counts per second (read 4) (recombinant NLuc) [Counts per second],Reads Counts per second (read 2) (recombinant NLuc) [Counts per second],Reads Counts per second (read 3) (recombinant NLuc) [Counts per second],% activity in Vero 100PFU screen [1] [%],"Mean relative luminescence (n=4) [1, 3]","Mean relative luminescence (n=4) [1, 4]",Mean relative luminescence (n=4) [2],PrestoBlue relative viability (Vero cells; [5]),PrestoBlue relative viability (Vero cells; Vero screen),PrestoBlue relative viability (HUH7 cells),"activity at 10 µM [1, 4] [%]",effect on virus replication [1],effect on virus replication [2],toxic effects on cells (HUH7 cells)
COC(=O)C1=C(C)NC(C)=C(C(=O)O[C@@H]2CCCN(Cc3ccccc3)C2)[C@@H]1c1cccc([N+](=O)[O-])c1.Cl (racemic) [Benidipine HCl],0.1313,50508,49177,49563,49185,1.81,0.003673,0.003673,0.003821,0.8086,0.8086,0.6609,,,,
CCCCc1oc2ccccc2c1C(=O)c1cc(I)c(OCCN(CC)CC)c(I)c1 [Amiodarone HCl],0.9671,364410,366409,365102,365644,,0.03182,,0.03404,0.8378,0.8378,0.9633,3.18,,,
CCOC(=O)C1=C(COCCN)NC(C)=C(C(=O)OC)C1c1ccccc1Cl (stereo not shown) [Amlodipine Besylate],,,,,,,0.124,,0.03381,1.385,1.385,0.6859,12.4,,,
O=C1CCc2ccc(OCCCCN3CCN(c4cccc(Cl)c4Cl)CC3)cc2N1 [Aripiprazole],,,,,,,0.1007,,0.008694,0.6278,0.6278,0.7416,10.1,,,
COc1nc2ccc(Br)cc2cc1[C@@H](c1ccccc1)[C@@](O)(CCN(C)C)c1cccc2ccccc12.O=C(O)/C=C/C(=O)O [Bedaquiline fumarate],0.9227,351974,338630,352561,351293,3.58,0.01053,0.01053,0.1084,1.113,1.113,0.5224,,,,
Cl.Cl.Fc1ccc(C(c2ccc(F)cc2)N2CCN(C/C=C/c3ccccc3)CC2)cc1 [Flunarizine 2HCl],,,,,,,0.1133,0.1133,0.1091,2.629,2.629,0.9689,,,,
COC(=O)C[C@](O)(CCCC(C)(C)O)C(=O)O[C@@H]1C(OC)=C[C@]23CCCN2CCc2cc4c(cc2[C@H]13)OCO4 [Homoharringtonine],,,,,,,0.01441,,0.0133,0.5068,0.5068,0.6794,1.44,,,
Cc1cccc(C)c1OCC(=O)N[C@@H](Cc1ccccc1)[C@@H](O)C[C@H](Cc1ccccc1)NC(=O)[C@H](C(C)C)N1CCCNC1=O [Lopinavir],,,,,,,,,,,,,,failed to halt replication of SARS-CoV-2,failed to halt replication of SARS-CoV-2,
"Cc1ccc(NC(=O)c2ccc(CN3CCN(C)CC3)cc2)cc1Nc1nc(-c2cccnc2)cs1 [Masitinib (AB1010), Masitinib]",,,,,,,0.1339,,0.03917,1.308,1.308,0.7156,13.4,,,
Cl.Fc1ccc([C@@H]2CCNC[C@H]2COc2ccc3c(c2)OCO3)cc1 [Paroxetine HCl],0.9732,360169,368856,,369849,12,,0.09097,,1.088,,,,,,
CC[C@@H]([C@H](C)O)n1ncn(-c2ccc(N3CCN(c4ccc(OC[C@@H]5CO[C@@](Cn6cncn6)(c6ccc(F)cc6F)C5)cc4)CC3)cc2)c1=O [Posaconazole],0.8565,325406,315077,,324458,6,,,,0.7676,,,5.17,,,
CC(C)(Sc1cc(C(C)(C)C)c(O)c(C(C)(C)C)c1)Sc1cc(C(C)(C)C)c(O)c(C(C)(C)C)c1 [Probucol],0.9023,337686,339611,,341300,5,,,,0.7536,,,2.23,,,
CC(C)c1nc(CN(C)C(=O)N[C@H](C(=O)N[C@@H](Cc2ccccc2)C[C@H](O)[C@H](Cc2ccccc2)NC(=O)OCc2cncs2)C(C)C)cs1 [Ritonavir],,,,,,,,,,,,,,failed to halt replication of SARS-CoV-2,failed to halt replication of SARS-CoV-2,
CC[C@@H](C(=O)[C@@H](C)[C@@H](O)[C@H](C)[C@@H]1O[C@@H]([C@@H](CC)C(=O)O)CC[C@@H]1C)[C@H]1O[C@]2(C=C[C@@H](O)[C@]3(CC[C@@](C)([C@H]4CC[C@](O)(CC)[C@H](C)O4)O3)O2)[C@H](C)C[C@@H]1C [Salinomycin],0.9779,365050,367850,,373342,3.75,,,,0.6121,,,1.89,,,
CSc1nc2cc(Cl)c(Oc3cccc(Cl)c3Cl)cc2[nH]1 [Triclabendazole],0.8923,335937,339544,,336143,12,,,,0.62,,,9.74,,,
CN1CCN(CCCN2c3ccccc3Sc3ccc(C(F)(F)F)cc32)CC1.Cl.Cl [Trifluoperazine 2HCl],0.9397,358281,360671,,348422,7,,0.05678,,0.6995,,,,,,
Br.Cc1ccc(Sc2ccccc2N2CCNCC2)c(C)c1 [Vortioxetine (Lu AA21004) HBr],0.7479,280784,284019,,284246,1.39,,0.007391,,0.509,,,,,,
Cc1ccc(Sc2ccccc2N2CCNCC2)c(C)c1 [Vortioxetine],0.8732,326546,332965,,329264,6,,,,0.6088,,,4.21,,,
CC[C@H]1OC(=O)[C@H](C)[C@@H](O[C@H]2C[C@@](C)(OC)[C@@H](O)[C@H](C)O2)[C@H](C)[C@@H](O[C@@H]2O[C@H](C)C[C@H](N(C)C)[C@H]2O)[C@](C)(O)C[C@@H](C)CN(C)[C@H](C)[C@@H](O)[C@]1(C)O [azithromycin],,,,,,,,,,,,,,,did show some effects,toxic effects on cells
C[C@@H]1C[C@H]2[C@@H]3CCC4=CC(=O)C=C[C@]4(C)[C@@]3(F)[C@@H](O)C[C@]2(C)[C@@]1(O)C(=O)CO [dexamethasone],,,,,,,,,,,,,,did not demonstrate any effect on viral replication,did not demonstrate any effect on viral replication,
CCN(CCO)CCCC(C)Nc1ccnc2cc(Cl)ccc12 (stereo not shown) [hydroxychloroquine],,,,,,,,,,,,,,,did show some effects,toxic effects on cells
C=C1CC[C@H](O)C/C1=C/C=C1\CCC[C@]2(C)[C@@H]([C@H](C)/C=C/[C@H](C)C(C)C)CC[C@@H]12 [vitamin D2],,,,,,,,,,,,,,also reduced virus replication but did not meet all criteria,also reduced virus replication but did not meet all criteria,
